Read-outs that look alike come from different tables or passages of the source.
Key:
topoisomerase I = biological target: T1, topoisomerase I (Homo sapiens, UniProt P11387); settings: metabolite formed by nonspecific carboxylesterases; cited from earlier work
T1 sequence (P11387 1-765): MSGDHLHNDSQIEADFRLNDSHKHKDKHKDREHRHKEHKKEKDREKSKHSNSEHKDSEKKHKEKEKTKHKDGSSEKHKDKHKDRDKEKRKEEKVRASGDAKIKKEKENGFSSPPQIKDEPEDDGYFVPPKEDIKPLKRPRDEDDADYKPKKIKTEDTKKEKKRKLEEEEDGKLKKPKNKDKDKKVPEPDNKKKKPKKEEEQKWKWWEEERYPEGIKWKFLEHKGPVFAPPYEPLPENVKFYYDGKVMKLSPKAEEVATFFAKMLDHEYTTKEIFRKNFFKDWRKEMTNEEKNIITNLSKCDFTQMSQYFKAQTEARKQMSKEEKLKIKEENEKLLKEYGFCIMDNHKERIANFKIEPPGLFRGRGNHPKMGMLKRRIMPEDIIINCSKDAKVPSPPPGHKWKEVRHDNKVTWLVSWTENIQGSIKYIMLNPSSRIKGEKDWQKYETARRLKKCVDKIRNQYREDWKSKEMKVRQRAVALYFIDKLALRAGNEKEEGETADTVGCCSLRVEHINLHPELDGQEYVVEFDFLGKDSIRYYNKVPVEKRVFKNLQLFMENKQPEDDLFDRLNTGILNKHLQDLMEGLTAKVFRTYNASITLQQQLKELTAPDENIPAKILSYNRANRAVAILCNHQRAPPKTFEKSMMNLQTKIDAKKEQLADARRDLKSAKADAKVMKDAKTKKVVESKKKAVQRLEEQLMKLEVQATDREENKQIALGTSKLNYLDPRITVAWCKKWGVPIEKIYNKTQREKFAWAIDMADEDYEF

[1] = system: pancreatic cell lines (AsPC-1, BxPC-3, Capan-2, CFPAC-1, and MiaPaCa-2); assay: In vitro cell growth inhibition by SN-38 exposure duration in a panel of pancreatic cell lines; settings: SN-38 combined with 5-FU or oxaliplatin; prolonged vs short exposure
[2] = cited from earlier work
[3] = system: PDX 19015 pancreatic cancer xenograft; assay: Patient-derived xenograft (PDX #19015) pancreatic cancer mouse efficacy model; assay type: in vivo; settings: FIG. 6D, relative to the control group
Procedure: Treatment doses are indicated in the figure beside each treatment, and were given 4 times.
Significance was determined by ordinary 2-way analysis of variance (ANOVA). The regimens were administered on days 0, 7, 14 and 21 of the study.
Female CB.17 SCID mice were obtained from Roswell Park Cancer Institute (Buffalo, N.Y.), initially at 6-8 weeks of age. Per treatment group, 8 animals were treated, unless otherwise indicated. Tumor pieces were derived from donor mice and engrafted subcutaneously.
5-FU was administered intraperitoneally. […] Tolerability: Mouse weights were measured once weekly to monitor treatment tolerability.

[4] = Delayed dosing of oxaliplatin: tolerability, hematologic and liver toxicities in naive CD-1 mice; settings: intravenous, pre-defined
Procedure: Tolerability studies were performed in naïve (non-tumor-bearing) mice. Three animals were treated per group.
Each drug was administered individually, or in combination. […] A single administration of each drug was given. Mouse body weights were measured daily for up to 2 weeks post-treatment.
Measurement of hematologic and liver toxicities: At the end of study, terminal bleeds were performed for each mouse via cardiac puncture. Hematologic function (blood cell count) was measured by Hemavet (Drew Scientific, Miami Lakes, Fla.), according to manufacturer's protocol. Liver function (enzyme levels) was measured by CatalystDx (Idexx Laboratories, Westbrook, Me.) according to the manufacturer's protocol.

[5] = Phase 3 study of the FOLFIRINOX combination; cited from earlier work

Molecule: CCc1c2c(nc3ccc(O)cc13)-c1cc3c(c(=O)n1C2)COC(=O)[C@]3(O)CC [SN-38]
- activity relative to irinotecan (topoisomerase I): 100-1000 fold
- cell growth inhibition [1]: prolonged exposure also led to increased cell growth inhibition

Molecule: CCc1c2c(nc3ccc(OC(=O)N4CCC(N5CCCCC5)CC4)cc13)-c1cc3c(c(=O)n1C2)COC(=O)[C@]3(O)CC [irinotecan, (S)-4,11-diethyl-3,4,12,14-tetrahydro-4-hydroxy-3,14-dioxo1H-pyrano[3′,4′: 6,7]-indolizino[1,2-b]quinolin-9-yl-[1,4′bipiperidine]-1′-carboxylate]
- incidence of grade 4 neutropenia ([2]; patients heterozygous for UGT1A1*28 (6/7 genotype), single-agent irinotecan 350 mg/m^2 once every-3-weeks): 12.5%
- incidence of grade 4 neutropenia ([2]; patients homozygous for the UGT1A1*28 allele, single-agent irinotecan 350 mg/m^2 once every-3-weeks): 50%
- incidence of grade 4 neutropenia ([2]; patients homozygous for the wild-type allele (UGT1A1 6/6 genotype)): no grade 4 neutropenia was observed
- overall survival [3]: No benefit of added 5-FU or oxaliplatin

Molecule: O=C(O)C(=O)O.[NH-][C@@H]1CCCC[C@H]1[NH-].[Pt+2] [oxaliplatin]
- maximum tolerated dose [4]: 17 mg/kg

Molecule: FOLFIRINOX
- incidence of most common Grade 3-4 adverse events (neutropenia, fatigue, vomiting, diarrhea, thrombocytopenia, sensory neuropathy, anemia, elevated ALT, thromboembolism, febrile neutropenia) [5]: > 5%
